Experiment: gradient 5% acetonitrile 3 min, to 50% in 2 min, to 85% in 15 min, held 3 min, 100 µL/min
Conditions: column: Zorbax Extend-C18 2.1 x 50 mm; eluents: water / acetonitrile, 0.1% formic acid
Method in brief: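 Values are retention times taken from adduct peaks that software picked and an analyst inspected. The pure standards were run as mixtures of ~100 molecules on HPLC linked to a quadrupole time-of-flight mass spectrometer, in positive and negative ionization mode. A Zorbax Extend-C18 column (2.1 × 50 mm, 1.8 μm) was used at 100 μL/min with water and acetonitrile, each including 0.1% formic acid.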

Row | Compound | RP-LC retention time
1 | O=C(C1CCCN(c2cnc3nccnc3c2)C1)N1CCN(c2ccc(F)cc2)CC1 (centres undefined) | 746 s
2 | CCN1CCN(CCNC(=O)C2CCN(c3nc4cccnc4s3)CC2)CC1 | 559 s
3 | Cc1ccc(-c2nc(-n3c(C)c4c(C)nnc(C)c4c3C)sc2C)cc1C | 832 s
4 | Cc1ccc(-c2cc3c(=O)n(Cc4noc(-c5ccccc5)n4)ccn3n2)c(C)c1 | 1160 s
5 | Cc1ccc(-c2noc(Cn3ccnc3)n2)cc1C | 659 s
6 | CCc1nc2ccccc2c(=O)n1Cc1noc(-c2cccc(OC)c2)n1 | 998 s
7 | COc1ccc(N2CCN(C(=O)C3CCN(S(=O)(=O)c4cn(C(C)C)cn4)CC3)CC2)cc1 | 706 s
8 | CCC(C)NC(=O)C1CCCN1S(=O)(=O)c1cc2c(cc1C)NC(=O)CO2 (centres undefined) | 710 s
9 | CCS(=O)(=O)N1CCCN(C(=O)NC(C)C)CC1 | 613 s
10 | CCCN1C(=O)C(CC(=O)NCC(C)C)Sc2ncccc21 (centres undefined) | 741 s
11 | O=S(=O)(c1cccs1)N1CCN(c2cnn3c(C4CC4)nnc3c2)CC1 | 683 s
12 | O=C(Nc1cccc(-c2cn3cccnc3n2)c1)c1cccc([N+](=O)[O-])c1 | 687 s
13 | COCCn1c(CCCC(=O)Nc2ccc(Cl)cc2)nc2cccnc21 | 693 s
14 | Cn1nc(C(=O)N2C[C@@H](Oc3ccccc3)C[C@H]2C(=O)NC2CC2)c2ccccc21 | 802 s
15 | COCc1cnc2c(c1SCc1cccc(Cl)c1)c(=O)n(C)c(=O)n2C | 1060 s
16 | COc1ccc2c(c1)C1(CCN(C(=O)c3ccc(Cl)cc3)C1)C(=O)N2C (centres undefined) | 832 s
17 | O=C(CC1CCCC1)NCCC1CCN(C(=O)Nc2ccccc2)CC1 | 784 s
18 | Cc1cccc(C)c1NC(=O)CN1CCCC1=O | 697 s
19 | Cc1nc(N2CCC(C(=O)Nc3ccc(F)cc3F)CC2)c2c(C)c(C)oc2n1 | 874 s
20 | COc1cc(C(=O)Nc2nc(-c3ccc(Cl)cc3)cs2)cc(OC)c1OC | 1120 s
21 | O=C(C1CCCCC1)N1CCC(c2noc(CO)n2)C1 (centres undefined) | 656 s
22 | COc1ccc(-n2c(=O)c3sccc3n(Cc3nc(-c4ccccc4OC)no3)c2=O)cc1 | 856 s
23 | O=C(CSc1nc2ccccc2o1)Nc1cc(C(F)(F)F)ccc1Cl | 891 s
24 | CN(C)C[C@@H]1CN(Cc2ccncc2)C[C@H]1NS(=O)(=O)c1ccc(C#N)cc1 | 639 s
25 | COc1ccc(C2(C(=O)N3CCn4ccnc4C3C(C)C)CC2)cc1 (centres undefined) | 568 s
26 | Cc1oc(-c2ccccc2)nc1Cn1ccn2nc(-c3cccs3)cc2c1=O | 1060 s

Row | Compound | RP-LC retention time
27 | CC(C)c1ccc(-c2noc(N3CCC(C(=O)N4CCOCC4)CC3)n2)cc1 | 955 s
28 | CCn1cnc2ccc(-c3noc(COc4cccc(C)c4)n3)cc21 | 808 s
29 | Cn1cc(S(=O)(=O)N2CCC(C(=O)N3CCCCCC3)CC2)cc1C(=O)N1CCCCC1 | 770 s
30 | CN(CC1CCOC1)C(=O)c1ccccc1Br (centres undefined) | 697 s
31 | CC(C)c1cc(C(=O)Nc2ccc(F)c(Cl)c2)nc2ccnn12 | 1210 s
32 | Cc1noc(C)c1S(=O)(=O)N1CCC(Cc2nc(-c3ccncc3)n[nH]2)C1 (centres undefined) | 619 s
33 | Cn1c(=O)c2c3c(cnc2n(C)c1=O)C(=O)CC(c1cccc(Cl)c1)C3 (centres undefined) | 1020 s
34 | O=S(=O)(c1cccc2cccnc12)N1CCc2nc(-c3ccc(F)cc3)ncc2C1 | 1000 s
35 | Nc1cc(C2CCN(C(=O)c3cccc(F)c3)CC2)no1 | 658 s
36 | CN1CCN(c2nc(C3=C(c4c[nH]c5ccccc45)C(=O)NC3=O)c3ccccc3n2)CC1 | 674 s
37 | COc1cc([N+](=O)[O-])ccc1NC(=O)CCS(=O)(=O)c1ccc(Cl)cc1 | 854 s
38 | CCCCOc1ccc(CNC(=O)CSc2nccnc2Oc2ccccc2)cc1 | 1130 s
39 | Cc1cc2n(n1)CCC(=O)N2CCCC(=O)NCCCN1CCCC(C)C1 (centres undefined) | 570 s
40 | N#Cc1cccc(S(=O)(=O)N2CCC(c3cc(N)on3)CC2)c1 | 743 s
41 | O=C(CCn1nnc2ccccc2c1=O)NCC1CCS(=O)(=O)C1 (centres undefined) | 585 s
42 | Cc1ccccc1Nc1c(-c2c(F)cccc2Cl)nc2ccccn12 | 739 s
43 | CN1CCN(C(=O)C2CCN(S(=O)(=O)c3cc(-c4noc(C5CC5)n4)cs3)CC2)CC1 | 643 s
44 | CC(NC(=O)c1cccs1)C(=O)Nc1nc2ccccc2[nH]1 (centres undefined) | 612 s
45 | CN1C(=O)c2cc(S(=O)(=O)Nc3ccc(F)c(Cl)c3)ccc2Oc2cccnc21 | 962 s
46 | COc1cc(CCC(=O)N2CCC3(CC2)NCc2ccccc2-n2ccnc23)on1 | 584 s
47 | Cc1sc(C)c(S(=O)(=O)N2CCN(c3ccccn3)CC2)c1-c1cc(C(F)(F)F)on1 | 887 s
48 | COc1cccc(N2CCN(C(=O)C3CCCN(c4ncnc5c4nc4n5CCCCC4)C3)CC2)c1 (centres undefined) | 627 s
49 | COc1cc2c(cc1OC)C(C(=O)Nc1ccc3c(c1)OCO3)C(c1cccs1)N(C)C2=O (centres undefined) | 790 s
50 | COCc1cn(C2CN(C(=O)c3cnc(C)cn3)C2)nn1 | 592 s
51 | Cc1cccc(-c2ncccc2CNS(=O)(=O)c2cc(F)ccc2F)c1 | 738 s
52 | O=C(CSc1nc(-c2ccccc2)ns1)Nc1nc2ccccc2s1 | 1000 s

The remaining lines, values ahead:

Row | RP-LC retention time | Compound
53 | 947 s | Cc1ccc(CCNC(=O)c2ccc3c(c2)N(C)C(=O)C2CCCCN32)cc1 (centres undefined)
54 | 723 s | Cc1cc(N2CCOCC2)nc(N2CCN(C(=O)c3ccc(C(C)(C)C)cc3)CC2)n1
55 | 750 s | O=C(Cn1cc(S(=O)(=O)N2CCOCC2)ccc1=O)N1CCCc2ccccc21
56 | 1090 s | CCCn1cc(C(=O)NCC(=O)OCC)c(S(=O)(=O)N2CCN(c3ccccc3Cl)CC2)n1
57 | 806 s | Cc1noc(C)c1C1CCCN1C(=O)Cc1ccccc1Cl (centres undefined)
58 | 863 s | COc1ccc(C)cc1NC(=O)N1CCCC1c1cc(C)on1 (centres undefined)
59 | 1010 s | Cc1ccc(C)c(-n2ccn(Cc3nc(-c4ccc(F)c(Cl)c4)no3)c(=O)c2=O)c1
60 | 1040 s | Cc1nc(-c2ccc3c(c2)CCN3C(=O)c2nccc3ccccc23)cs1
61 | 859 s | COc1cc2c(cc1C(=O)NCCc1c[nH]c3ccccc13)OCCCO2
62 | 712 s | CCC(C)NC(=O)N1CC(Oc2ccc(-c3nc(-c4ccccc4)no3)cc2)C1 (centres undefined)
63 | 758 s | CCN1C(=O)CCc2cc(NS(=O)(=O)c3cccc4cccnc34)ccc21
64 | 823 s | CC(C)c1ccc(CNC(=O)c2ccc3c(c2)nc2n3CCN(C(C)C)C2=O)cc1
65 | 709 s | Cc1nc(S(=O)(=O)N2CCC(C(=O)NCc3ccc(Cl)cc3)CC2)cn1C
66 | 640 s | O=C1NCCCn2cc(S(=O)(=O)NCc3ccc4c(c3)OCO4)cc21
67 | 619 s | CN(C)C(=O)c1ccc2c(c1)N(CC(=O)NCc1cccc(Cl)c1)C(=O)C1CCCCN21 (centres undefined)
68 | 771 s | CNC(=O)c1nc(C(=O)NCCc2ccc(Cl)cc2)cs1
69 | 896 s | COc1ccccc1-c1noc(C2CCCN2C(=O)c2ccccc2C)n1 (centres undefined)
70 | 1010 s | Cc1ccc(S(=O)(=O)N2C(=O)CCC2C(=O)NC2CCCCCCC2)cc1 (centres undefined)
71 | 955 s | CCC(=O)N1c2ccc(S(=O)(=O)N3CCCCC3)cc2CC1C(=O)NCc1ccc(C)cc1 (centres undefined)

Row | RP-LC retention time | Compound
72 | 986 s | CCc1nn2c(CNS(=O)(=O)c3cc(C)ccc3C)c(-c3ccccc3)nc2s1
73 | 721 s | Cc1sc2ncn(CC(=O)NCCCC(=O)N3CCCC(C)C3)c(=O)c2c1C (centres undefined)
74 | 1120 s | O=c1c2ccccc2n(Cc2nc(-c3ccc(Br)cc3)no2)c(=O)n1CC1CCCO1 (centres undefined)
75 | 892 s | Cc1ccc(N2C(=O)CN(S(C)(=O)=O)CC2(C)C(=O)NC2CCCCC2)cc1Cl (centres undefined)
76 | 686 s | CNC(=O)CCC(=O)N1c2ccccc2NC2=C(C(=O)CC(C)(C)C2)C1c1ccccc1 (centres undefined)
77 | 803 s | Cc1cc(N2CCOCC2)nc(N2CCN(S(=O)(=O)c3ccc(-c4ccccc4)cc3)CC2)n1
78 | 666 s | CCCN1CCN(C(=O)CC(c2ccc(C)cc2)N2Cc3ccccc3C2=O)CC1 (centres undefined)
79 | 742 s | Cc1oc2ccc(NS(=O)(=O)c3ccc(F)cc3)cc2c1C(=O)O
80 | 751 s | CCn1c(=O)n(CC(=O)NCCN2CCCCC2C)c(=O)c2cnc(-c3ccc(Cl)cc3)nc21 (centres undefined)
81 | 1130 s | CN(c1nc(-c2ccc(C(C)(C)C)cc2)nc2ccccc12)C1CCCCC1
82 | 1130 s | COc1ccc(-c2nnc(-c3cccc(S(=O)(=O)N4CCCCCC4)c3)o2)cc1
83 | 814 s | Cc1nnc(-c2ccc3ccn(CC(=O)N4CCCc5ccccc54)c3c2)o1
84 | 716 s | CCN1CCn2cc(S(=O)(=O)NCc3ccc(C)cc3)cc2C1=O
85 | 750 s | CCCCCC(=O)Nc1cc(-c2nc3ccc(C)cc3[nH]2)ccc1C
86 | 576 s | O=C(NCc1cccnc1)C1CCCN(c2ncnc3c2oc2ccccc23)C1 (centres undefined)
87 | 903 s | CCOC(=O)CC(=O)CSc1nc2ccsc2c(=O)n1Cc1ccc(F)cc1
88 | 652 s | Cc1ccc(C)c(Sc2cc(N3CCC(C(=O)N4CCC(C(N)=O)CC4)CC3)ncn2)c1
89 | 856 s | Cc1ccc(NC(=O)c2cccn2Cc2noc(C)n2)cc1

Source: the METLIN SMRT retention time set (Domingo-Almenara et al. 2019)
